Tests used:
SCIPC [1] = experiment: SCIPC viability in nutrient deprived and/or hypoxic culture, PI staining and flow cytometry; assay type: cell-based, human; conditions: for preservation of insulin-producing cells after stress: SCIPC; for beta cell / SCIPC survival: nutrient deprived and/or hypoxic environment, 24 hours
Protocol: (§1) SCIPC cultured for 24 hours in nutrient deprived and/or hypoxic conditions with or without GABA, PTH, and PTHrP At the end of the experiment, islet viability was measured using PI staining followed by flow cytometry. FIG. 11B depicts the effect of GABA, PTH and PTHrP on preserving insulin-producing cells after stress. FIG. 11C depicts quantification of viability of eBC cultured for 24 hours in nutrient deprived or hypoxic conditions with or without GABA, PTH, and PTHrP. […] Quantification of viability of cBC cultured for 24 hours in nutrient deprived and/or hypoxic conditions with or without leptin or serotonin. Islet viability measured using PI staining followed by flow cytometry.
(§2) In order to understand whether cell survival is due to secreted pro-survival or pro-angiogenic molecules, known PTG-released molecules were added to SCIPC and eBC cultures in vitro. While PTH is the main PTG-secreted hormone, previous publications also show GABA production within the PTG. GABA and PTH improve beta cell survival in nutrient deprived and/or hypoxic environment in vitro (FIG. 11A).

eBC = eBC viability in nutrient deprived and/or hypoxic culture, PI staining and flow cytometry; assay type: cell-based, human; conditions: 24 hours; for preservation of insulin-producing cells after stress: nutrient deprived or hypoxic; for beta cell survival: nutrient deprived and/or hypoxic
Protocol: as §1, §2

human islets = experiment: Amino acid supplementation, viability of high density culture (PI staining); assay type: cell-based; conditions: 1000 islets/mL, RPMI+5% serum
From the text: (§3) FIG. 15A, FIG. 15B, and FIG. 15C depict the effect of nutrient supplementation on islet cell death in vitro. The effects of cell survival by supplementation of amino acids on mouse islets (FIG. 15A), human islets (FIG. 15B), and SCIPC (FIG. 15C) cultured in low or high density conditions (mouse=1000 islets/mL, human=1000 islets/mL, SCIPC=3000 clusters/mL) in RPMI+5% serum with addition of glucose. GLN: glutamine, TRP: tryptophan. Cell viability is quantified using PI staining via flow cytometry. Data shown are a summary of 3 independent experiments.
(§4) Various insulin-producing cells cultured in low (nutrient replete; mouse=200 islets/mL, human=200 islets/mL, SCIPC=200 clusters/mL) or high density conditions (nutrient limiting; mouse=1000 islets/mL, human=1000 islets/mL, SCIPC=3000 clusters/mL) in RPMI+5% serum with addition of glucose.

mouse islets = experiment: as above; assay type: cell-based; conditions: 1000 islets/mL, RPMI+5% serum
From the text: as §3, §4

SCIPC [2] = experiment: as above; assay type: cell-based, human; conditions: 3000 clusters/mL, RPMI+5% serum
From the text: as §3, §4

Q: Which “preservation of insulin-producing cells after stress” value (“preservation” below) (SCIPC [1]) does the source give for `NCCCC(=O)O` [GABA] here?
A: preferentially preserve

Q: And the “beta cell / SCIPC survival” value (SCIPC [1])?
A: improve

Q: And the “preservation” value (eBC)?
A: preferentially preserve

Q: `NC(=O)CC[C@H](N)C(=O)O` [glutamine] was tested. Which “viability under nutrient-limiting condition” value (human islets) did it give?
A: preserved viability

Q: And the “viability under nutrient-limiting condition” value (mouse islets)?
A: preserved viability

Q: What about the “viability under nutrient-limiting condition” value (SCIPC [2]) of the same molecule?
A: preserved viability

Q: How did the beta cell survival (eBC) turn out when `NCCc1c[nH]c2ccc(O)cc12` [serotonin] was run?
A: preserves beta cell survival

Q: Which “viability under nutrient-limiting condition” value (human islets) does the source give for `N[C@@H](Cc1c[nH]c2ccccc12)C(=O)O` [tryptophan] here?
A: preserved viability

Q: And the “viability under nutrient-limiting condition” value (mouse islets)?
A: preserved viability

Q: And the “viability under nutrient-limiting condition” value (SCIPC [2])?
A: preserved viability

Q: How did the beta cell survival (eBC) turn out when leptin was run?
A: preserves beta cell survival

Q: What does the source list for “parathyroid hormone-related protein [PTHrP]”?
A: preservation of insulin-producing cells after stress (SCIPC [1]): preferentially preserve; beta cell / SCIPC survival (SCIPC [1]): preserve SCIPC survival; preservation of insulin-producing cells after stress (eBC): preferentially preserve

B1: parathyroid hormone (protein, UniProt P01270 32-115, looked up)
Parathyroid hormone: SVSEIQLMHNLGKHLNSMERVEWLRKKLQDVHNFVALGAPLAPRDAGSQRPRKKEDNVLVESHEKSLGEADKADVNVLTKAKSQ
modifications: Parathyroid hormone
notes: main PTG-secreted hormone added to cultures
Q: B1 was tested. Which “preservation” value (SCIPC [1]) did it give?
A: preferentially preserve

Q: And the “beta cell / SCIPC survival” value (SCIPC [1])?
A: improve

Q: What about the “preservation” value (eBC) of the same molecule?
A: preferentially preserve
